Columns and labels:
Assay type in all cases: biochemical
Conditions in all cases: thiopeptolide substrate Ac-Pro-Leu-Gly-thioester-Leu-Leu-Gly-OEt
[1] = molecular target: MMP-2CD (gelatinase A catalytic domain) (Homo sapiens, UniProt P08253); assay: MMP-2CD inhibition, thiopeptolide substrate
Protocol: (§1) Experiments were carried out with the catalytic domains of the proteinases. […] IC50 values were determined using a thiopeptolide substrate, Ac-Pro-Leu-Gly-thioester-Leu-Leu-Gly-OEt (Ye Q.-Z., Johnson L. L., Hupe D. J., and Baragi V., “Purification and Characterization of the Human Stromelysin Catalytic Domain Expressed in Escherichia coli”, Biochemistry, 1992;31:11231-11235).

[2] = molecular target: T1, MMP-3CD (stromelysin-1 catalytic domain) (Homo sapiens, UniProt P08254); assay: MMP-3CD inhibition, thiopeptolide substrate
T1 construct: Experiments were carried out with the catalytic domains of the proteinases
Protocol: as §1

[3] = molecular target: T2, MMP-13CD (collagenase-3 catalytic domain) (Homo sapiens, UniProt P45452); assay: MMP-13CD inhibition, thiopeptolide substrate
T2 construct: Experiments were carried out with the catalytic domains of the proteinases
Protocol: as §1

T1 sequence (P08254 100-272 limits assumed): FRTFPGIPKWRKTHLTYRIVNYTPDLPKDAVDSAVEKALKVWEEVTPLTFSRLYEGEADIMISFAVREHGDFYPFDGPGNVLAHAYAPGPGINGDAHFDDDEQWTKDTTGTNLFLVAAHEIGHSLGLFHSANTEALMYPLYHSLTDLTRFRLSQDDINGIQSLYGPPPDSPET

Row | IC50 [1] | IC50 [2] | IC50 [3] | Compound
1 | 1250 nM | 13000 nM | 10600 nM | O=C(O)CCC(=NO)c1ccc(-n2cccn2)cc1 [Example 1, 4-Hydroxyimino-4-(4-pyrazol-1-yl-phenyl)butyric Acid]
2 | 63.9 nM | 298 nM | 1100 nM | O=C(O)CCC(=O)c1ccc(-c2ccc(Cl)s2)cc1 [Example 2, 4-[4-(5-Chloro-thiophen-2-yl)-phenyl]-4-oxo-butyric Acid]
3 | 14 nM | 105 nM | 120 nM | O=C(O)CCC(=NO)c1ccc(-c2ccc(Cl)s2)cc1 [Example 3]

Reference: patent publication US6399612B1, “Heteroaryl butyric acids and their derivatives as inhibitors of matrix metalloproteinases” (Warner-Lambert Company, priority 1997, dated 2002)
